Patent publication US20090221599A1, “PHTHALAZINONE PYRAZOLE DERIVATIVES, THEIR MANUFACTURE AND USE AS PHARMACEUTICAL AGENTS” (priority 2006, published 2009)

The molecules below were run against T1, mutant Aurora A kinase (Homo sapiens, UniProt O14965) (assay: IC50 determination for inhibitors of Aurora A (ELISA, GST-Histone H3 substrate)). Conditions: 30 μM ATP, 40 minutes, read-out: IC50 Aurora A kinase inhibition.
T1 sequence (O14965 1-403): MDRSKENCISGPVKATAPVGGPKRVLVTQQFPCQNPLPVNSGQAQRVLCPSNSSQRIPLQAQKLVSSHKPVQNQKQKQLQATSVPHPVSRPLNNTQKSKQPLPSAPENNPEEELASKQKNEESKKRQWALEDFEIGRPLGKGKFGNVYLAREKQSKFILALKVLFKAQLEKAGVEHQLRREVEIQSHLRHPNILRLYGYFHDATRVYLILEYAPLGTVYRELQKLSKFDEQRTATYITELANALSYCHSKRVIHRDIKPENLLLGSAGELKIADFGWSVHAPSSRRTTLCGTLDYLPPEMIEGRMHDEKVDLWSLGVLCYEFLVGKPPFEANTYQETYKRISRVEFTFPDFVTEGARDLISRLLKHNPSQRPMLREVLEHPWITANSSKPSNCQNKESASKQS
Assay type: biochemical
Method: Aurora A is a serine threonine kinase involved in spindle assembly and chromosome segregation.
The assay is a typically ELISA-type assay where substrate (GST-Histone H3) is coupled to the assay-plate and is phosphorylated by the kinase. Phosphorylation is detected by a mouse anti-Phosphopeptid mAb and an HRP-labeled anti-mouse pAb. The assay is validated for IC50-determination.
Kinase activities were measured by Enzyme-Linked Immunosorbent Assay (ELISA): Maxisorp 384-well plates (Nunc) were coated with recombinant fusion protein comprising residues 1-15 of Histone H3 fused to the N-terminus of Glutathione-S-Transferase. Plates were then blocked with a solution of 1 mg/mL I-block (Tropix cat# T2015—highly purified form of casein) in phosphate-buffered saline. Kinase reactions were carried out in the wells of the ELISA plate by combining an appropriate amount of mutant Aurora A kinase with test compound and 30 μM ATP. The reaction buffer was 10× Kinase Buffer (Cell Signaling cat #9802) supplemented with 1 μg/mL I-block. Reactions were stopped after 40 minutes by addition of 25 mM EDTA. After washing, substrate phosphorylation was detected by addition of anti-phospho-Histone H3 (Ser 10) 6G3 mAb (Cell Signaling cat #9706) and sheep anti-mouse pAb-HRP (Amersham cat# NA931V), followed by calorimetric development with TMB (3,3′,5,5′-tetramethylbenzidine from Kirkegaard & Perry Laboratories). After readout of the absorbance, IC50 values were calculated using a non-linear curve fit (XLfit software (ID Business Solution Ltd., Guilford, Surrey, UK)).

Point of comparison: Cc1cc(Nc2nn(C(C)C)c(=O)c3cc(S(=O)(=O)CCS(C)(=O)=O)ccc23)n[nH]1 [Example C-2, 2-Isopropyl-7-(2-methanesulfonyl-ethanesulfonyl)-4-(5-methyl-1H-pyrazol-3-ylamino)-2H-phthalazin-1-one], IC50 10 nM. Against it:
- Cc1cc(Nc2nn(C(C)C)c(=O)c3cc(OCCCS(=O)(=O)N4CCOCC4)ccc23)n[nH]1 [Example A-4, 2-Isopropyl-4-(5-methyl-1H-pyrazol-3-ylamino)-7-[3-(morpholine-4-sulfonyl)-propoxy]-2H-phthalazin-1-one] — the same, 10 nM
- Cc1cc(Nc2nn(C(C)C)c(=O)c3cc(OCCN(C)C)ccc23)n[nH]1 [Example A-5, 7-(2-Dimethylamino-ethoxy)-2-isopropyl-4-(5-methyl-1H-pyrazol-3-ylamino)-2H-phthalazin-1-one] — 2.2-fold higher, 22 nM
- Cc1cc(Nc2nn(C(C)C)c(=O)c3cc(COCCN4CCOCC4)ccc23)[nH]n1 [Example E-3, 2-Isopropyl-4-(5-methyl-2H-pyrazol-3-ylamino)-7-(2-morpholin-4-yl-ethoxymethyl)-2H-phthalazin-1-one] — 1.6-fold higher, 16 nM

Each molecule was assayed on HCT 116 cells (assay: CellTiter-Glo assay in HCT 116 cells). Conditions: HCT 116 human colon carcinoma cells, 5 days, CellTiter-Glo cell viability.
Assay type: cell-based
Method: The CellTiter-Glo™ Luminescent Cell Viability Assay (Promega) is a homogeneous method of determining the number of viable cells in culture based on quantitation of the ATP present, which signals the presence of metabolically active cells.
HCT 116 cells (human colon carcinoma, ATCC-No. CC1-247) were cultivated in RPMI 1640 medium with GlutaMAX™ I (Invitrogen, Cat-No. 61870-010), 2.5% Fetal Calf Serum (FCS, Sigma Cat-No. F4135 (FBS)); 100 Units/ml penicillin/100 μg/ml streptomycin (=Pen/Strep from Invitrogen Cat. No. 15140). For the assay the cells were seeded in 384 well plates, 1000 cells per well, in the same medium. The next day the test compounds were added in various concentrations ranging from 30 μM to 0.0015 μM (10 concentrations, 1:3 diluted). After 5 days the CellTiter-Glo™ assay was done according to the instructions of the manufacturer (CellTiter-Glo™ Luminescent Cell Viability Assay, from Promega). In brief: the cell-plate was equilibrated to room temperature for approximately 30 minutes and than the CellTiter-Glo™ reagent was added. The contents were carefully mixed for 15 minutes to induce cell lysis. After 45 minutes the luminescent signal was measured in Victor 2, (scanning multiwell spectrophotometer, Wallac).
1st. day: • Medium: RPMI 1640 with GlutaMAX™ I (Invitrogen, Cat-No. 61870), 5% FCS (Sigma Cat.-No. F4135), Pen/Strep (Invitrogen, Cat No. 15140). • HCT116 (ATCC-No. CC1-247): 1000 cells in 60 μl per well of 384 well plate (Greiner 781098, μClear-plate white) • After seeding incubate plates 24 h at 37° C., 5% CO2 2nd. day: Induction (Treatment with compounds, 10 concentrations):
In order to achieve a final concentration of 30 μM as highest concentration 3.5 μl of 10 mM compound stock solution were added directly to 163 μl media. Then step e) of the dilution procedure described below, was followed.
In order to achieve the second highest to the lowest concentrations, a serial dilution with dilution steps of 1:3 was followed according to the procedure (a-d) as described here below: • a) for the second highest concentration add 10 μl of 10 mM stock solution of compound to 20 μl dimethylsulfoxide (DMSO) • b) dilute 8× 1:3 (always 10 μl to 20 μl DMSO) in this DMSO dilution row (results in 9 wells with concentrations from 3333.3 μM to 0.51 μM) • c) dilute each concentration 1:47.6 (3.5 μl compound dilution to 163 μl media) • d) add 10 μl of every concentration to 60 μl media in the cell plate resulting in final concentration of DMSO: 0.3% in every well and resulting in 10 final concentration of compounds ranging from 30 μM to 0.0015 μM. • Each compound is tested in triplicate. • Incubate 120 h (5 days) at 37° C., 5% CO2
• Add 30 μl CellTiter-Glo™ Reagent (prepared from CellTiter-Glo™ Buffer and CellTiter-Glo™ Substrate (lyophilized) purchased from Promega) per well, • shake 15 minutes at room temperature • incubate further 45 minutes at room temperature without shaking
• Victor 2 scanning multiwell spectrophotometer (Wallac), Luminescence mode (0.5 sec/read, 477 nm) • Determine IC50 using a non-linear curve fit (XLfit software (ID Business Solution Ltd., Guilford, Surrey, UK))

For CSCCN(C)c1ccc2c(Nc3cc(C)[nH]n3)nn(C(C)C)c(=O)c2c1 [Example B-1, 2-Isopropyl-7-[methyl-(2-methylsulfanyl-ethyl)-amino]-4-(5-methyl-1H-pyrazol-3-ylamino)-2H-phtalazin-1-one], the IC50 was 92 nM.

Same assay, conditions: Homo sapiens, HCT-116, 120 h, HCT 116 human colon carcinoma cells, 5 days, CellTiter-Glo cell viability

Point of comparison: CSCCOc1ccc2c(Nc3cc(C)[nH]n3)nn(C(C)C)c(=O)c2c1 [Example A-1, 2-Isopropyl-4-(5-methyl-1H-pyrazol-3-ylamino)-7-(2-methylsulfanyl-ethoxy)-2H-phthalazin-1-one], IC50 216 nM. Against it:
- COCCOc1ccc2c(Nc3cc(C)[nH]n3)nn(C(C)C)c(=O)c2c1 [Example A-2, 2-Isopropyl-7-(2-methoxy-ethoxy)-4-(5-methyl-1H-pyrazol-3-ylamino)-2H-phthalazin-1-one] — not separable, 50 to 500 nM
- Cc1cc(Nc2nn(C(C)C)c(=O)c3cc(OCCCS(=O)(=O)N(C)C)ccc23)n[nH]1 [Example A-3, 3-[3-Isopropyl-1-(5-methyl-1H-pyrazol-3-ylamino)-4-oxo-3,4-dihydro-phthalazin-6-yloxy]-propane-1-sulfonic acid dimethylamide] — not separable, 50 to 500 nM
- Cc1cc(Nc2nn(C(C)C)c(=O)c3cc(OCCCS(=O)(=O)N4CCOCC4)ccc23)n[nH]1 [Example A-4, 2-Isopropyl-4-(5-methyl-1H-pyrazol-3-ylamino)-7-[3-(morpholine-4-sulfonyl)-propoxy]-2H-phthalazin-1-one] — 3.7-fold higher, 791 nM
- Cc1cc(Nc2nn(C(C)C)c(=O)c3cc(OCCS(C)(=O)=O)ccc23)n[nH]1 [Example A-7, 2-Isopropyl-7-(2-methanesulfonyl-ethoxy)-4-(5-methyl-1H-pyrazol-3-ylamino)-2H-phthalazin-1-one] — not separable, 50 to 500 nM
- COCCN(C)c1ccc2c(Nc3cc(C)[nH]n3)nn(C(C)C)c(=O)c2c1 [Example B-2, 2-Isopropyl-7-[(2-methoxy-ethyl)-methyl-amino]-4-(5-methyl-1H-pyrazol-3-ylamino)-2H-phthalazin-1-one] — not separable, 50 to 500 nM
- Cc1cc(Nc2nn(C(C)C)c(=O)c3cc(N(C)CCN(C)C)ccc23)n[nH]1 [Example B-3, 7-[(2-Dimethylamino-ethyl)-methyl-amino]-2-isopropyl-4-(5-methyl-1H-pyrazol-3-ylamino)-2H-phthalazin-1-one] — not separable, 50 to 500 nM
- CSCCSc1ccc2c(Nc3cc(C)[nH]n3)nn(C(C)C)c(=O)c2c1 [Example C-1, 2-Isopropyl-4-(5-methyl-1H-pyrazol-3-ylamino)-7-(2-methylsulfanyl-ethylsulfanyl)-2H-phthalazin-1-one] — within 1.5-fold, 296 nM
- Cc1cc(Nc2nn(C(C)C)c(=O)c3cc(S(=O)(=O)CCS(C)(=O)=O)ccc23)n[nH]1 [Example C-2, 2-Isopropyl-7-(2-methanesulfonyl-ethanesulfonyl)-4-(5-methyl-1H-pyrazol-3-ylamino)-2H-phthalazin-1-one] — higher, 500 to 2500 nM
- Cc1cc(Nc2nn(C(C)C)c(=O)c3cc(COCC4CC4)ccc23)n[nH]1 [Example E-1, 7-Cyclopropylmethoxymethyl-2-isopropyl-4-(5-methyl-1H-pyrazol-3-ylamino)-2H-phthalazin-1-one] — not separable, 50 to 500 nM
- Cc1cc(Nc2nn(C(C)C)c(=O)c3cc(COCc4cccnc4)ccc23)n[nH]1 [Example E-2, 2-Isopropyl-4-(5-methyl-1H-pyrazol-3-ylamino)-7-(pyridin-3-ylmethoxymethyl)-2H-phthalazin-1-one] — not separable, 50 to 500 nM
- Cc1cc(Nc2nn(C(C)C)c(=O)c3cc(COCCN4CCOCC4)ccc23)[nH]n1 [Example E-3, 2-Isopropyl-4-(5-methyl-2H-pyrazol-3-ylamino)-7-(2-morpholin-4-yl-ethoxymethyl)-2H-phthalazin-1-one] — higher, 500 to 2500 nM
- CSCc1ccc2c(Nc3cc(C)[nH]n3)nn(C(C)C)c(=O)c2c1 [Example F-1, 2-Isopropyl-4-(5-methyl-1H-pyrazol-3-ylamino)-7-methylsulfanylmethyl-2H-phthalazin-1-one] — not separable, 50 to 500 nM
- Cc1cc(Nc2nn(C(C)C)c(=O)c3cc(CS(C)(=O)=O)ccc23)n[nH]1 [Example F-2, 2-Isopropyl-7-methanesulfonylmethyl-4-(5-methyl-1H-pyrazol-3-ylamino)-2H-phthalazin-1-one] — higher, 500 to 2500 nM
- COCC(=O)N(C)c1ccc2c(Nc3cc(C)[nH]n3)nn(C(C)C)c(=O)c2c1 [Example G-1, N-[3-Isopropyl-1-(5-methyl-1H-pyrazol-3-ylamino)-4-oxo-3,4-dihydro-phthalazin-6-yl]-2-methoxy-N-methyl-acetamide] — not separable, 50 to 500 nM
- COCC(=O)N(C)c1ccc2c(Nc3cc(C)[nH]n3)nn(Cc3cc(F)cc(F)c3)c(=O)c2c1 [Example G-2, N-[3-(3,5-Difluoro-benzyl)-1-(5-methyl-1H-pyrazol-3-ylamino)-4-oxo-3,4-dihydro-phthalazin-6-yl]-2-methoxy-N-methyl-acetamide] — higher, 500 to 2500 nM
